Patent publication US8329918B2, “Selective alpha 2B/2C agonists” (priority 2009, dated 2012)
pEC50: −log10 of the molar value. Like-named read-outs stand apart in the source and are kept apart here.

Assays:
[1] = system: patient with moderate post-herpetic neuralgia pain; experiment: Treating post-herpetic neuralgia pain in a patient; type: in vivo; settings: tablet twice daily as needed
Text: A tablet including N-(2-methoxybenzyl)-4,5-dihydrooxazol-2-amine is delivered taken by the patient twice daily as needed for the pain.
II. […] A tablet including N-(2-methoxybenzyl)-4,5-dyhydrothizaol-2-amine is delivered taken by the patient twice daily as needed for the pain.
III. […] A tablet including N-(3-chloro-2-fluorobenzyl)-4,5-dihydrooxazol-2-amine is delivered taken by the patient twice daily as needed for the pain.

[2] = system: patient with moderate intraocular pressure in the right eye; experiment: Treating elevated intraocular pressure in a patient; type: in vivo; settings: ophthalmic composition to the right eye twice daily; two months later
Text: An ophthalmic composition including N-(2-methoxybenzyl)-4,5-dihydrooxazol-2-amine is delivered to the right eye of the patient twice daily.
II. […] An ophthalmic composition including N-(2-methoxybenzyl)-4,5-dyhydrothizaol-2-amine is delivered to the right eye of the patient twice daily.
III. […] An ophthalmic composition including N-(3-chloro-2-fluorobenzyl)-4,5-dihydrooxazol-2-amine is delivered to the right eye of the patient twice daily.

[3] = system: diabetic patient with moderate neuropathy in the right leg; experiment: Treating diabetic peripheral neuropathy in a patient; type: in vivo; settings: topical composition on the right leg twice daily; two months later
Experimental: A topical composition including N-(2-methoxybenzyl)-4,5-dihydrooxazol-2-amine is administered on the right leg of the patient twice daily.
III. […] A topical composition including N-(2-methoxybenzyl)-4,5-dyhydrothizaol-2-amine is administered on the right leg of the patient twice daily.
III. […] A topical composition including N-(3-chloro-2-fluorobenzyl)-4,5-dihydrooxazol-2-amine is administered on the right leg of the patient twice daily.

alpha2A receptor = molecular target: T1, alpha2A receptor (Homo sapiens, UniProt P08913); experiment: RSAT assay, alpha 2A; type: cell-based; settings: for (rel. efficacy) Alpha 2A / EC50: RSAT; for (rel. efficacy) Alpha 2A: ratio of maximal effect to standard full agonist brimonidine (UK14304); for EC50: NIH-3T3 cells, NA = not active, read-out: EC50 (nM) Alpha 2A
T1 sequence (P08913 1-465): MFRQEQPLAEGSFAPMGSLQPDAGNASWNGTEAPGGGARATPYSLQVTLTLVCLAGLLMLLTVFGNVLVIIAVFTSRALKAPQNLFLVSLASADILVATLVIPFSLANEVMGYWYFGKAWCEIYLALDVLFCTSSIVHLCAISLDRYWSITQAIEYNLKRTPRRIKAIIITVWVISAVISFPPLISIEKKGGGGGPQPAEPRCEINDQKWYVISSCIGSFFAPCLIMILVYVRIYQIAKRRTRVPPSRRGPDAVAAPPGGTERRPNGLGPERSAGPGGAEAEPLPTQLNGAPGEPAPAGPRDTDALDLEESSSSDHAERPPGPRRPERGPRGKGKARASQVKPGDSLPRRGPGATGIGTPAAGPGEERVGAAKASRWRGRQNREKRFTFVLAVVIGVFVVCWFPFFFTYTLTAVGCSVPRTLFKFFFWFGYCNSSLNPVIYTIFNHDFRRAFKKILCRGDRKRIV
Experimental: (§1) Selected presently described compounds were synthesized and tested for alpha adrenergic activity using the Receptor Selection and Amplification Technology (RSAT) assay. Cells expressing each of the alpha-2-adrenergic receptors alone were incubated with various compounds and a receptor-mediated growth response was measured. The compound's activity is expressed as its relative efficacy compared to a standard full agonist.
(§2) The RSAT assay measures a receptor-mediated loss of contact inhibition that results in selective proliferation of receptor-containing cells in a mixed population of confluent cells. The increase in cell number is assessed with an appropriate transfected marker gene such as β-galactosidase, the activity of which can be easily measured in a 96-well format. Receptors that activate the G protein, Gq, elicit this response. Alpha2 receptors, which normally couple to Gi, activate the RSAT response when coexpressed with a hybrid Gq protein that has a Gi receptor recognition domain, called Gq/i5.
(§3) NIH-3T3 cells are plated at a density of 2×10^6 cells in 15 cm dishes and maintained in Dulbecco's modified Eagle's medium supplemented with 10% calf serum. One day later, cells are cotransfected by calcium phosphate precipitation with mammalian expression plasmids encoding p-SV-β-galactosidase (5-10 μg), receptor (1-2 μg) and G protein (1-2 μg). 40 μg salmon sperm DNA may also be included in the transfection mixture. Fresh media is added on the following day and 1-2 days later, cells are harvested and frozen in 50 assay aliquots. Cells are thawed and […] added to […] aliquots of various concentrations of drugs in triplicate in 96-well dishes. Incubations continue 72-96 hr at 37° C. After washing with phosphatebuffered saline, β-galactosidase enzyme activity is determined by adding 200 μl of the chromogenic substrate (consisting of 3.5 mM o-nitrophenyl-β-D-galactopyranoside and 0.5% nonidet P-40 in phosphate buffered saline), incubating overnight at 30° C. and measuring optical density at 420 nm. The absorbance is a measure of enzyme activity, which depends on cell number and reflects a receptor-mediated cell proliferation. The EC50 and maximal effect of each drug at each alpha2 receptor is determined. The efficacy or intrinsic activity is calculated as a ratio of the maximal effect of the drug to the maximal effect of a standard full agonist for each receptor subtype. Brimonidine, also called UK14304, is used as the standard agonist for the alpha2A, alpha2B, and alpha2C receptors.
(§4) The compounds activity is expressed as its relative efficacy compared to a standard full agonist.

alpha2B receptor = molecular target: T2, alpha2B receptor (Homo sapiens, UniProt P18089); experiment: RSAT assay, alpha 2B; type: cell-based; settings: for (rel. efficacy) Alpha 2B: RSAT, ratio of maximal effect to standard full agonist brimonidine (UK14304)
T2 construct: expressed in transfected cells; host or cells: NIH-3T3
T2 sequence (P18089 1-450): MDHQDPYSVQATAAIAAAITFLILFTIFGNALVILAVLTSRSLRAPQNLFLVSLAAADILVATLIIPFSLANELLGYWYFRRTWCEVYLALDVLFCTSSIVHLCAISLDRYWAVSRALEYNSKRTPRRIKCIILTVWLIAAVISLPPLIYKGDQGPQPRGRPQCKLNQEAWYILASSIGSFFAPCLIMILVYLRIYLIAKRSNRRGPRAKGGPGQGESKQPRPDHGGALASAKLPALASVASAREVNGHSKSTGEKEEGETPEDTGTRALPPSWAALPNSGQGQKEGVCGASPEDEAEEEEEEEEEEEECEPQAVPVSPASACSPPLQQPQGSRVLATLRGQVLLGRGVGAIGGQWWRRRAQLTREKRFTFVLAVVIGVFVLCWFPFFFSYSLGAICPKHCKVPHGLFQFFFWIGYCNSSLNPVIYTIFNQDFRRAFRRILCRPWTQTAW
Experimental: as §1, §2, §3, §4

alpha2C receptor = molecular target: T3, alpha2C receptor (Homo sapiens, UniProt P18825); experiment: RSAT assay, alpha 2C; type: cell-based; settings: for (rel. efficacy) Alpha 2C / EC50: RSAT; for (rel. efficacy) Alpha 2C: ratio of maximal effect to standard full agonist brimonidine (UK14304); for EC50: NIH-3T3 cells, NA = not active, read-out: EC50 (nM) Alpha 2C
T3 construct: expressed in transfected cells; host or cells: NIH-3T3
T3 sequence (P18825 1-462): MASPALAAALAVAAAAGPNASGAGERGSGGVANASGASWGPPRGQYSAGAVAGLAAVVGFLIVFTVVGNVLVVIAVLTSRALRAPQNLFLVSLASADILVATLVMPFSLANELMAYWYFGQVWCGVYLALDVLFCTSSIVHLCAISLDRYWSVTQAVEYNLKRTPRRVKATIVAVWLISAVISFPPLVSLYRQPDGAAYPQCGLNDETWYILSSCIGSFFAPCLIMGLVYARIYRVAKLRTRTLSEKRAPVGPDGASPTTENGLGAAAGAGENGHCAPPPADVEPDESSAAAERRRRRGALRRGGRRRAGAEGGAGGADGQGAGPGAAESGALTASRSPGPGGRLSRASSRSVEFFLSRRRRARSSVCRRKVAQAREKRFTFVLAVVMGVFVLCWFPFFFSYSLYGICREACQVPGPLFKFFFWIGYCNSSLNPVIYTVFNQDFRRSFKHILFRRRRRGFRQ
Experimental: as §1, §2, §3, §4

Row | SMILES | patient-reported pain [1] | intraocular pressure of the patient [2] | neuropathy of the patient [3] | pEC50 (alpha2A receptor) | (rel. efficacy) Alpha 2A (alpha2A receptor) | pEC50 (alpha2B receptor) | (rel. efficacy) Alpha 2B (alpha2B receptor) | pEC50 (alpha2C receptor) | (rel. efficacy) Alpha 2C (alpha2C receptor) | EC50 (alpha2A receptor) [nM] | EC50 (alpha2C receptor) [nM]
1 | COc1ccccc1CNC1=NCCO1 [N-(2-methoxybenzyl)-4,5-dihydrooxazol-2-amine] | reduction of pain | normal intraocular pressure | reduction neuropathy | – | – | – | – | – | – | – | –
2 | COc1ccccc1CNC1=NCCS1 [N-(2-methoxybenzyl)-4,5-dihydrothiazol-2-amine] | reduction of pain | normal intraocular pressure | reduction neuropathy | – | – | – | – | – | – | – | –
3 | Fc1c(Cl)cccc1CNC1=NCCO1 [N-(3-chloro-2-fluorobenzyl)-4,5-dihydrooxazol-2-amine] | reduction of pain | normal intraocular pressure | reduction neuropathy | – | – | – | – | – | – | – | –
4 | COc1c(C)cccc1CNC1=NCCS1 | – | – | – | 6.32 | 0.57 | 7.57 | 0.98 | 6.73 | 0.97 | – | –
5 | COc1c(Br)cccc1CNC1=NCCS1 | – | – | – | – | 0.55 | 7.51 | 1.1 | – | 0.81 | 621 | 109
6 | Clc1c(Br)cccc1CNC1=NCCS1 | – | – | – | < 5.52 | 0.4 | 7.74 | 1.01 | – | 0.98 | – | 198
7 | Cc1cccc(CNC2=NCCS2)c1Cl | – | – | – | – | 0.4 | 7.96 | 1.27 | 7.49 | 1.03 | 281 | –
